Assay results published in ChEMBL document CHEMBL1147551, “Synthesis and inhibition of Src kinase activity by 7-ethenyl and 7-ethynyl-4-anilino-3-quinolinecarbonitriles” (Bioorg Med Chem Lett, 2004).

Columns and labels:
[1] = molecular target: Proto-oncogene tyrosine-protein kinase Src (Homo sapiens, UniProt P12931); assay: Enzyme inhibitory activity against recombinant human Src protein tyrosine kinase
[2] = species on record: Rattus norvegicus; assay: Inhibitory activity against Src-dependent cell proliferation assay using rat fibroblasts
[3] = species on record: Rattus norvegicus; assay: Inhibitory activity against Src-dependent cell proliferation assay, using rat fibroblasts; format: functional

Chain of Proto-oncogene tyrosine-protein kinase Src (P12931 2-536 limits assumed): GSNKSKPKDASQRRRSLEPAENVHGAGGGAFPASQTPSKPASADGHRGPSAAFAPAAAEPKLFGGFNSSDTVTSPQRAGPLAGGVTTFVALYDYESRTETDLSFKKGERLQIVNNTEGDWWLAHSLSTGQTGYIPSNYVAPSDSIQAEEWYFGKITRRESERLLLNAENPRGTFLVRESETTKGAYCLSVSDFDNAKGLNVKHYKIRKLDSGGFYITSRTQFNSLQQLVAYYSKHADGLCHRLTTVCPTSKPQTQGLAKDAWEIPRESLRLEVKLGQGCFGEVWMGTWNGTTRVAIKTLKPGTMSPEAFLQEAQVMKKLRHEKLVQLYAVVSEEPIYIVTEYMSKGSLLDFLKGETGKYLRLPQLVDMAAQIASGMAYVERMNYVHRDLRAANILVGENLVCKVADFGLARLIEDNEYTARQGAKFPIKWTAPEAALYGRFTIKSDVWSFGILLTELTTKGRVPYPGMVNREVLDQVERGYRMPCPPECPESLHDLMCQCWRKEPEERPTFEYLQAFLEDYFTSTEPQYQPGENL

| IC50 [1] | SMILES | IC50 [2] | Inhibition [3] |
| --- | --- | --- | --- |
| 200 nM | N#Cc1cnc2cc(C#Cc3cccnc3)ccc2c1Nc1ccc(Cl)cc1Cl | 3900 nM | – |
| – | COc1cc(Nc2c(C#N)cnc3cc(/C=C/c4ccncc4)ccc23)c(Cl)cc1Cl | 230 nM | – |
| 1000 nM | N#Cc1cnc2cc(/C=C/c3ccncc3)ccc2c1NCc1ccc(Cl)cc1Cl | > 10000 nM | – |
| 8.4 nM | COc1cc(Nc2c(C#N)cnc3cc(/C=C/c4cccnc4)c(OC)cc23)c(Cl)cc1Cl | 140 nM | – |
| 2300 nM | COc1cc(Nc2c(C#N)cnc3cc(/C=C/c4ccc(-c5ccccc5)cc4)ccc23)c(Cl)cc1Cl | > 10000 nM | – |
| 320 nM | COc1cc(Nc2c(C#N)cnc3cc(/C=C/c4ccc5ccccc5c4)ccc23)c(Cl)cc1Cl | > 10000 nM | – |
| – | COc1cc(Nc2c(C#N)cnc3cc(C#Cc4cccnc4)ccc23)c(Cl)cc1Cl | 650 nM | – |
| 83 nM | COc1cc(Nc2c(C#N)cnc3cc(C#Cc4ccncc4)ccc23)c(Cl)cc1Cl | 2700 nM | – |
| – | COc1cc(Nc2c(C#N)cnc3cc(/C=C/c4ccncc4)c(OC)cc23)c(Cl)cc1Cl | 80 nM | – |
| 57 nM | COc1cc(Nc2c(C#N)cnc3cc(C#Cc4ccccc4)c(OC)cc23)c(Cl)cc1Cl | 3000 nM | – |
| 19 nM | COc1cc(Nc2c(C#N)cnc3cc(/C=C/c4ccccn4)ccc23)c(Cl)cc1Cl | – | 50% |
| 97 nM | C=Cc1ccc2c(Nc3cc(OC)c(Cl)cc3Cl)c(C#N)cnc2c1 | 9300 nM | – |
| 15 nM | COc1cc(Nc2c(C#N)cnc3cc(/C=C/c4cccnc4)ccc23)c(Cl)cc1Cl | 230 nM | – |
| 12000 nM | CCOC(=O)c1cnc2cc(/C=C/c3ccncc3)ccc2c1Nc1ccc(Cl)cc1Cl | > 10000 nM | – |
| 320 nM | COc1cc(Nc2c(C#N)cnc3cc(C#Cc4ccccc4)ccc23)c(Cl)cc1Cl | > 10000 nM | – |
| 3100 nM | CCOc1cc(Nc2c(C#N)cnc3cc(/C=C/c4ccncc4)ccc23)c(Cl)cc1Cl | > 10000 nM | – |
| – | N#Cc1cnc2cc(/C=C/c3ccncc3)ccc2c1Nc1ccc(Cl)cc1Cl | 1200 nM | – |
| 380 nM | N#Cc1cnc2cc(/C=C/c3ccncc3)ccc2c1Oc1ccc(Cl)cc1Cl | 7200 nM | – |
| 420 nM | COc1cc(Nc2c(C#N)cnc3cc(C#Cc4ccc(-c5ccccc5)cc4)ccc23)c(Cl)cc1Cl | > 10000 nM | – |
| 65 nM | COc1cc(Nc2c(C#N)cnc3cc(/C=C/c4ccccc4)c(OC)cc23)c(Cl)cc1Cl | 1500 nM | – |
| – | COc1cc(Nc2c(C#N)cnc3cc(C#Cc4cccnc4)c(OC)cc23)c(Cl)cc1Cl | 270 nM | – |
| 180 nM | COc1cc(Nc2c(C#N)cnc3cc(/C=C/c4ccccc4)ccc23)c(Cl)cc1Cl | 2700 nM | – |
| 1600 nM | O=C(O)c1cnc2cc(/C=C/c3ccncc3)ccc2c1Nc1ccc(Cl)cc1Cl | > 10000 nM | – |
| 530 nM | COc1cc(Nc2c(C#N)cnc3cc(C#Cc4ccccn4)ccc23)c(Cl)cc1Cl | > 10000 nM | – |
| – | COc1cc(Nc2c(C#N)cnc3cc(CCc4ccncc4)ccc23)c(Cl)cc1Cl | > 10000 nM | – |
